Converted amounts (≈) assume the structure as drawn.
Key:
Assay in all cases: MIC determination at Fidelta, clinical isolates
Format in all cases: cell-based
[1] = system: clinical isolates of Vancomycin-resistant Enterococcus faecium (VRE)
Summary of the method: (§1)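 Clinical isolates and ATCC reference strains revived on MH agar, tested by broth microdilution in Mueller Hinton broth. Compounds from 5 mg/mL DMSO stocks, two-fold serial dilutions, final 64-0.125 μg/mL.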

[2] = system: clinical isolates of methicillin-resistant Staphylococcus aureus (MRSA)
Summary of the method: as §1

[3] = system: clinical isolates of multidrug-resistant Pseudomonas aeruginosa (and ATCC27853)
Summary of the method: as §1

[4] = system: clinical isolates of multidrug-resistant Acinetobacter baumannii (and ATCC17978)
Summary of the method: as §1

[5] = AB-2017, Bronchial aspirate/CRAB
[6] = AB-2019, Bronchial aspirate/CRAB

Row | SMILES | MIC90 ([1]; VRE-2005, Urine) [µg/mL] | MIC90 ([1]; VRE-2006, Urine) [µg/mL] | MIC90 ([1]; VRE-2007, Urine) [µg/mL] | MIC90 ([1]; VRE-2008, Urine) [µg/mL] | MIC90 ([1]; VRE-2009, Urine) [µg/mL] | MIC90 ([1]; VRE-2010, Urine) [µg/mL] | MIC90 ([1]; VRE-2011, Rectum) [µg/mL] | MIC90 ([1]; VRE-2012, Rectum) [µg/mL] | MIC90 ([1]; VRE-2013, Rectum) [µg/mL] | MIC90 ([2]; MRSA-1995, Liquor) [µg/mL] | MIC90 ([2]; MRSA-1998, Wound) [µg/mL] | MIC90 ([2]; MRSA-1999, Skin) [µg/mL] | MIC90 ([2]; MRSA-2003, Wound) [µg/mL] | MIC90 ([3]; P. aeruginosa ATCC27853 strain) [µg/mL] | MIC90 ([3]; PA-1948, Wound/OXA-2) [µg/mL] | MIC90 ([3]; PA-1949, Urine/OXA-2) [µg/mL] | MIC90 ([3]; PA-1950, Sputum/OXA-2) [µg/mL] | MIC90 ([3]; PA-1952, Wound/OXA-2) [µg/mL] | MIC90 ([3]; PA-1953, Urine/MDR) [µg/mL] | MIC90 ([3]; PA-1954, Sputum/OXA-2) [µg/mL] | other results
1 | N=C(N)NC1C(O)[C@@H](CO)OC(OC2C(F)[C@H](O[C@H]3OC(CN)[C@@H](O)CC3N)C(N)C[C@H]2NC(=O)[C@@H](O)CCN)[C@@H]1O (some centres unmarked) [ABX5006, Tobra-AHB-F-Gua] | 4 (≈ 6.53 µM) | 32 (≈ 52.2 µM) | 4 (≈ 6.53 µM) | 8 (≈ 13.1 µM) | 16 (≈ 26.1 µM) | 8 (≈ 13.1 µM) | 16 (≈ 26.1 µM) | 4 (≈ 6.53 µM) | 4 (≈ 6.53 µM) | 0.5 (≈ 0.816 µM) | 0.25 (≈ 0.408 µM) | 0.5 (≈ 0.816 µM) | 0.5 (≈ 0.816 µM) | 0.25 (≈ 0.408 µM) | 0.5 (≈ 0.816 µM) | 8 (≈ 13.1 µM) | 1 (≈ 1.63 µM) | 4 (≈ 6.53 µM) | 8 (≈ 13.1 µM) | 0.5 (≈ 0.816 µM) | MIC90 ([3]; PA-1967, Blood/VIM): 4 µg/mL (≈ 6.53 µM); MIC90 ([4]; A. baumannii ATCC17978 strain): <0.125 µg/mL; MIC90 ([4]; AB-1931, Urine/CRAB): 0.5 µg/mL (≈ 0.816 µM); MIC90 ([4]; AB-1932, Urine (catheter)/CRAB): 1 µg/mL (≈ 1.63 µM); MIC90 ([4]; AB-1964, Blood): 1 µg/mL (≈ 1.63 µM); MIC90 [4, 5]: 0.5 µg/mL (≈ 0.816 µM); MIC90 ([4]; AB-2018, Skin/CRAB): 1 µg/mL (≈ 1.63 µM); MIC90 [4, 6]: 1 µg/mL (≈ 1.63 µM); MIC90 ([4]; AB-2025, Skin): 0.5 µg/mL (≈ 0.816 µM); MIC90 ([4]; AB-2026, Skin): 1 µg/mL (≈ 1.63 µM)
2 | N=C(NCCN)NC1C(O)[C@@H](CO)OC(OC2C(F)[C@H](O[C@H]3OC(CN)[C@@H](O)CC3N)C(N)C[C@H]2NC(=O)[C@@H](O)CCN)[C@@H]1O (some centres unmarked) [ABX5020, Tobra-AHB-F-Gua-2-amino-ethyl] | – | – | – | – | – | – | – | – | – | – | – | – | – | 0.25 (≈ 0.381 µM) | 1 (≈ 1.53 µM) | 8 (≈ 12.2 µM) | 1 (≈ 1.53 µM) | 8 (≈ 12.2 µM) | 16 (≈ 24.4 µM) | 0.5 (≈ 0.763 µM) | MIC90 ([4]; A. baumannii ATCC17978 strain): 0.5 µg/mL (≈ 0.763 µM); MIC90 ([4]; AB-1931, Urine/CRAB): 1 µg/mL (≈ 1.53 µM); MIC90 ([4]; AB-1932, Urine (catheter)/CRAB): 1 µg/mL (≈ 1.53 µM); MIC90 [4, 5]: 1 µg/mL (≈ 1.53 µM); MIC90 ([4]; AB-2018, Skin/CRAB): 2 µg/mL (≈ 3.05 µM); MIC90 [4, 6]: 2 µg/mL (≈ 3.05 µM)
3 | N=C(NC[C@@H]1CCCN1)NC1[C@@H](O)C(OC2[C@@H](F)[C@H](O[C@H]3OC(CN)[C@@H](O)CC3N)C(N)C[C@H]2NC(=O)[C@@H](O)CCN)O[C@H](CO)[C@H]1O (stereo partly drawn) [ABX5026, Tobra-AHB-F-Gua (S) pyrrolidine-2-yl-methyl] | 4 (≈ 5.75 µM) | 8 (≈ 11.5 µM) | 4 (≈ 5.75 µM) | 4 (≈ 5.75 µM) | 8 (≈ 11.5 µM) | 8 (≈ 11.5 µM) | 8 (≈ 11.5 µM) | 4 (≈ 5.75 µM) | 4 (≈ 5.75 µM) | 0.5 (≈ 0.719 µM) | 0.25 (≈ 0.359 µM) | 0.5 (≈ 0.719 µM) | 0.5 (≈ 0.719 µM) | 1 (≈ 1.44 µM) | 1 (≈ 1.44 µM) | 16 (≈ 23 µM) | 1 (≈ 1.44 µM) | 8 (≈ 11.5 µM) | 32 (≈ 46 µM) | 1 (≈ 1.44 µM) | MIC90 ([3]; PA-1967, Blood/VIM): 8 µg/mL (≈ 11.5 µM); MIC90 ([4]; A. baumannii ATCC17978 strain): 0.5 µg/mL (≈ 0.719 µM); MIC90 ([4]; AB-1931, Urine/CRAB): 1 µg/mL (≈ 1.44 µM); MIC90 ([4]; AB-1932, Urine (catheter)/CRAB): 1 µg/mL (≈ 1.44 µM); MIC90 ([4]; AB-1964, Blood): 2 µg/mL (≈ 2.87 µM); MIC90 [4, 5]: 1 µg/mL (≈ 1.44 µM); MIC90 ([4]; AB-2018, Skin/CRAB): 1 µg/mL (≈ 1.44 µM); MIC90 [4, 6]: 1 µg/mL (≈ 1.44 µM); MIC90 ([4]; AB-2025, Skin): 1 µg/mL (≈ 1.44 µM); MIC90 ([4]; AB-2026, Skin): 2 µg/mL (≈ 2.87 µM)
4 | N=C(NC[C@@H]1CCNC1)NC1[C@@H](O)C(OC2[C@@H](F)[C@H](O[C@H]3OC(CN)[C@@H](O)CC3N)C(N)C[C@H]2NC(=O)[C@@H](O)CCN)O[C@H](CO)[C@H]1O (stereo partly drawn) [ABX5039, Tobra-AHB-F-Gua (R) pyrrolidine-3-ylmethyl] | 4 (≈ 5.75 µM) | 16 (≈ 23 µM) | 4 (≈ 5.75 µM) | 4 (≈ 5.75 µM) | 4 (≈ 5.75 µM) | 8 (≈ 11.5 µM) | 8 (≈ 11.5 µM) | 4 (≈ 5.75 µM) | 4 (≈ 5.75 µM) | 0.5 (≈ 0.719 µM) | 0.25 (≈ 0.359 µM) | 0.25 (≈ 0.359 µM) | 0.5 (≈ 0.719 µM) | 0.5 (≈ 0.719 µM) | 1 (≈ 1.44 µM) | 8 (≈ 11.5 µM) | 1 (≈ 1.44 µM) | 4 (≈ 5.75 µM) | 32 (≈ 46 µM) | 1 (≈ 1.44 µM) | MIC90 ([3]; PA-1967, Blood/VIM): 4 µg/mL (≈ 5.75 µM); MIC90 ([4]; A. baumannii ATCC17978 strain): 0.5 µg/mL (≈ 0.719 µM); MIC90 ([4]; AB-1931, Urine/CRAB): 1 µg/mL (≈ 1.44 µM); MIC90 ([4]; AB-1932, Urine (catheter)/CRAB): 1 µg/mL (≈ 1.44 µM); MIC90 ([4]; AB-1964, Blood): 1 µg/mL (≈ 1.44 µM); MIC90 [4, 5]: 1 µg/mL (≈ 1.44 µM); MIC90 ([4]; AB-2018, Skin/CRAB): 1 µg/mL (≈ 1.44 µM); MIC90 [4, 6]: 1 µg/mL (≈ 1.44 µM); MIC90 ([4]; AB-2025, Skin): 1 µg/mL (≈ 1.44 µM); MIC90 ([4]; AB-2026, Skin): 2 µg/mL (≈ 2.87 µM)
5 | NCC[C@H](O)C(=O)N[C@@H]1C[C@H](N)[C@@H](O[C@H]2O[C@H](CN)[C@@H](O)[C@H](O)[C@H]2O)[C@H](O)[C@H]1O[C@H]1O[C@H](CO)[C@@H](O)[C@H](N)[C@H]1O [Amikacin, amikacin, reference compound] | > 64 | > 64 | > 64 | > 54 | > 64 | > 64 | > 64 | > 64 | > 64 | 4 (≈ 6.83 µM) | 4 (≈ 6.83 µM) | 8 (≈ 13.7 µM) | 4 (≈ 6.83 µM) | – | – | – | – | – | – | – | –
